Data published in patent publication US9234902B2, “Method for monitoring anticoagulant therapy” (priority 2011, dated 2016).

Legend:
FII and FX = assay: Sequential Fiix-INR (Fiix-PT) measurements over 49 days in a single patient starting on warfarin; assay type: in vivo, human; conditions: FIG. 6
From the text: The test results may be obtained as clotting time, clotting time ratio or any other endpoint measuring thrombin generation or fibrin formation. […] Since this is a variant of the prothrombin time we call it “Fiix-prothrombin time” or Fiix-PT.
In our new method, which we call Fiix-method, a test plasma sample (patient plasma) is mixed with normal plasma that has been immunodepleted of both FII and FX (Fiix-deficient plasma). Using such mixture, by adding thromboplastin and calcium, a prothrombin time variant can be measured that is only sensitive to FII and FX, ie Fiix-PT. In the Fiix-PT the proportions of test plasma to Fiix-deficient plasma can be in the range from 1:1 to 1:20 parts, preferably in the range from 1:2 to 1:10 (see below).
Based on the experiments shown in FIG. 4 we decided to measure the Fiix-PT by mixing […] of a 1:7 dilution of test plasma with 25 uL of Fiix-deficient plasma (i.e. final proportion 1 part test plasma to 2.2 parts Fiix-deficient plasma). We then measured “Fiix-PT” in samples from 38 patients on stable warfarin therapy and calculated the international normalized ratio (“Fiix-INR”). […] Corresponding results were found when Fiix-INR was correlated with Quick PT based INR(PT-INR, data not shown).
In FIG. 6 we show sequential measurements of Fiix-INR, PP-INR, FII, FVII and FX over 49 days in a single patient starting on warfarin. […]

FII, FVII and FX = assay: Sequential PT-INR (PP-INR) measurements over 49 days in a single patient starting on warfarin; assay type: in vivo, human; conditions: FIG. 6, grey zone
Procedure: Both the Quick prothrombin time (PT) and the Owren's prothrombin time (prothrombin proconverting time, P&P test) were measured on patient samples. The STA-R coagulation analyzer was used (Diagnostika Stago, Asnieres, France). The PT was done using the STA-Néoplastine® CI plus as coagulation reagent, with and ISI value of 1.3 and the P&P was done using the STA-SPA 50 reagent with ISI of 1.01 (both from Diagnostika Stago). The P&P reagent is similar to the PT reagent but also consists of added absorbed bovine plasma as a source of coagulation factor V and fibrinogen and, thus, is only sensitive to the activity of FII, FVII and FX. The P&P percentages were calculated from a standard curve based on serially diluted pooled plasma in Owren's buffer. The INR is calculate as described above.
In FIG. 6 we show sequential measurements of Fiix-INR, PP-INR, FII, FVII and FX over 49 days in a single patient starting on warfarin. The amount of coagulation factors (percentage) is shown on the left Y-axis and the INR value on the right Y-axis. The change in INR in relation to changes in concentrations of the VKD factors can be derived from the graph. […]

CC(=O)CC(c1ccccc1)c1c(O)c2ccccc2oc1=O (centres unmarked) [warfarin]
day on which the patient reaches an acceptable INR value (acceptable anticoagulation) by Fiix-INR (FII and FX): 5 days | day on which the patient has reached an acceptable anticoagulated range by PT-INR (FII, FVII and FX): 3 days
